Test results from patent publication US4438107A, “Aminoglycosides and use thereof” (Kowa Company, Ltd., priority 1981, dated 1984).
Converted amounts (≈) assume the structure as drawn. Like-named read-outs stand apart in the source and are kept apart here.

Legend:
[1] = test system: Staphylococcus aureus 209P JC-1; assay: antibacterial spectrum, minimal inhibitory concentration; format: cell-based
[2] = test system: Pseudomonas aeruginosa A3; assay: as above; format: cell-based
Proteus vulgaris OX-19 = assay: as above; format: cell-based
[3] = test system: Escherichia coli K-12 ML1410; assay: as above; format: cell-based; conditions: K12ML1410
Escherichia coli R-82 = assay: as above; format: cell-based; conditions: R82, resistance mechanism APH(3')II
Escherichia coli R-176 = assay: as above; format: cell-based; conditions: R176, resistance mechanism AAC(3)II
[4] = test system: Escherichia coli JR88/W677; assay: as above; format: cell-based; conditions: resistance mechanism AAC(3)I
Bacillus anthracis = assay: microbe, parasite or virus in culture; format: cell-based; conditions: read-out: Minimal inhibitory concentration
Streptococcus faecalis = assay: antibacterial spectrum, minimal inhibitory concentration; format: cell-based; conditions: Enterococcus faecalis
Escherichia coli R-81 = assay: as above; conditions: R81, read-out: Minimal inhibitory concentration
[5] = test system: Proteus inconstans GN1554; assay: as above; format: cell-based; conditions: Providencia alcalifaciens
[6] = test system: Pseudomonas aeruginosa TI-13; assay: as above; format: cell-based
Description: | Resistance mechanism: ^a APH(3')I,

[7] = test system: Pseudomonas aeruginosa No. 99; assay: as above; format: cell-based
[8] = test system: Klebsiella pneumoniae PCI 602; assay: as above; format: cell-based
Escherichia coli R-101 = assay: as above; format: cell-based
[9] = test system: Pseudomonas aeruginosa No. 12; assay: as above; format: cell-based
[10] = test system: Pseudomonas aeruginosa K-11; assay: as above; format: cell-based
[11] = test system: Bacillus subtilis ATCC 6633; assay: as above; format: cell-based; conditions: ATCC6633
[12] = test system: Escherichia coli NIHJ JC-2; assay: as above; format: cell-based
[13] = test system: Pseudomonas aeruginosa TK-157; assay: as above; format: cell-based
Bacillus cereus = assay: as above; format: cell-based
Serratia marcescens = assay: as above; format: cell-based; conditions: read-out: Minimal inhibitory concentration
[14] = test system: Pseudomonas aeruginosa GN315; assay: as above; format: cell-based
[15] = Pseudomonas aeruginosa, A3, read-out: Minimal inhibitory concentration
[16] = Proteus vulgaris, OX19, read-out: Minimal inhibitory concentration
[17] = GN1554, read-out: Minimal inhibitory concentration
[18] = Pseudomonas aeruginosa, TI13, read-out: Minimal inhibitory concentration
[19] = Pseudomonas aeruginosa, NO.99, read-out: Minimal inhibitory concentration
[20] = PCI602, Klebsiella pneumoniae PCI 602, read-out: Minimal inhibitory concentration
[21] = Escherichia coli, R101, read-out: Minimal inhibitory concentration
[22] = Pseudomonas aeruginosa, K11, read-out: Minimal inhibitory concentration
[23] = Escherichia coli, NIHJJC2, read-out: Minimal inhibitory concentration
[24] = Pseudomonas aeruginosa, TK157, read-out: Minimal inhibitory concentration
[25] = Pseudomonas aeruginosa, GN315, read-out: Minimal inhibitory concentration
[26] = OX19, Proteus vulgaris OX-19, read-out: Minimal inhibitory concentration
[27] = TI13, Pseudomonas aeruginosa TI-13, resistance mechanism APH(3')I, read-out: Minimal inhibitory concentration
[28] = Pseudomonas aeruginosa No. 99, resistance mechanism AAC(3)I, read-out: Minimal inhibitory concentration
[29] = Klebsiella pneumoniae, PCI602, read-out: Minimal inhibitory concentration
[30] = R101, Escherichia coli R-101, resistance mechanism AAD(2"), read-out: Minimal inhibitory concentration
[31] = K11, Pseudomonas aeruginosa K-11, read-out: Minimal inhibitory concentration
[32] = NIHJJC2, Escherichia coli NIHJ JC-2, read-out: Minimal inhibitory concentration
[33] = Proteus inconstans GN1554, resistance mechanism AAC(2'), read-out: Minimal inhibitory concentration
[34] = TK157, Pseudomonas aeruginosa TK-157, resistance mechanism APH(3')II, read-out: Minimal inhibitory concentration
[35] = Pseudomonas aeruginosa GN315, resistance mechanism AAC(6')IV, read-out: Minimal inhibitory concentration
[36] = Pseudomonas aeruginosa A3, read-out: Minimal inhibitory concentration

| Compound | MIC [1] [µg/mL] | MIC [2, 15] [µg/mL] | MIC [3] [µg/mL] | MIC (Escherichia coli R-82) [µg/mL] | MIC (Escherichia coli R-176) [µg/mL] | MIC [4] [µg/mL] | MIC (Bacillus anthracis) [µg/mL] | MIC (Streptococcus faecalis) [µg/mL] | MIC (Escherichia coli R-81) [µg/mL] | MIC [5, 17] [µg/mL] | MIC [8, 20] [µg/mL] | MIC (Escherichia coli R-101; [21]) [µg/mL] | MIC [9] [µg/mL] | MIC [11] [µg/mL] | MIC (Bacillus cereus) [µg/mL] | MIC (Serratia marcescens) [µg/mL] | MIC (Proteus vulgaris OX-19; [26]) [µg/mL] | MIC [7, 28] [µg/mL] | MIC [10, 31] [µg/mL] | MIC [13, 34] [µg/mL] | further results |
| --- | --- | --- | --- | --- | --- | --- | --- | --- | --- | --- | --- | --- | --- | --- | --- | --- | --- | --- | --- | --- | --- |
| CC(N)C1CCC(N)C(OC2C(N)CC(OCC(O)CCN)C(N(C)C(=O)CN)C2O)O1 (stereo not drawn) [B, 5-O-(4-amino-2-hydroxybutyl)-5-de-O-methyl-KA-6606 I] | 0.39 (≈ 0.843 µM) | 3.13 (≈ 6.77 µM) | 3.13 (≈ 6.77 µM) | 3.13 (≈ 6.77 µM) | 6.25 (≈ 13.5 µM) | 3.13 (≈ 6.77 µM) | ≤ 0.1 | 50 (≈ 108 µM) | 3.13 (≈ 6.77 µM) | 6.25 (≈ 13.5 µM) | 1.56 (≈ 3.37 µM) | 3.13 (≈ 6.77 µM) | 0.39 (≈ 0.843 µM) | ≤ 0.1 | 1.56 (≈ 3.37 µM) | 1.56 (≈ 3.37 µM) | – | – | – | – | MIC (Proteus vulgaris OX-19; [16]): 3.13 µg/mL (≈ 6.77 µM); MIC [6, 18]: 3.13 µg/mL (≈ 6.77 µM); MIC [7, 19]: 6.25 µg/mL (≈ 13.5 µM); MIC [10, 22]: 6.25 µg/mL (≈ 13.5 µM); MIC [12, 23]: 3.13 µg/mL (≈ 6.77 µM); MIC [13, 24]: 3.13 µg/mL (≈ 6.77 µM); MIC [14, 25]: 6.25 µg/mL (≈ 13.5 µM) |
| CC(N)C1CCC(N)C(OC2C(N)CC(O[C@H]3O[C@H](CO)[C@@H](O)[C@H](N)[C@H]3O)C(N(C)C(=O)CN)C2O)O1 (stereo partly drawn) [E, 5-O-(3-amino-3-deoxy-α-D-glucopyranosyl)-5-de-O-methyl-KA-6606 I] | 0.39 (≈ 0.727 µM) | 6.25 (≈ 11.6 µM) | 6.25 (≈ 11.6 µM) | 6.25 (≈ 11.6 µM) | 6.25 (≈ 11.6 µM) | 1.56 (≈ 2.91 µM) | 0.2 (≈ 0.373 µM) | 50 (≈ 93.2 µM) | 6.25 (≈ 11.6 µM) | 6.25 (≈ 11.6 µM) | – | – | 0.39 (≈ 0.727 µM) | 0.2 (≈ 0.373 µM) | 0.78 (≈ 1.45 µM) | 1.56 (≈ 2.91 µM) | 3.13 (≈ 5.83 µM) | 12.5 (≈ 23.3 µM) | 3.13 (≈ 5.83 µM) | – | MIC [6, 27]: 3.13 µg/mL (≈ 5.83 µM); MIC [8, 29]: 1.56 µg/mL (≈ 2.91 µM); MIC (Escherichia coli R-101; [30]): 3.13 µg/mL (≈ 5.83 µM); MIC [12, 32]: 3.13 µg/mL (≈ 5.83 µM); MIC [13, 24]: 1.56 µg/mL (≈ 2.91 µM); MIC [14, 25]: 6.25 µg/mL (≈ 11.6 µM) |
| CC(N)C1CCC(N)C(OC2C(N)CC(O[C@@H]3O[C@H](CO)[C@@H](O)[C@H](O)[C@H]3O)C(N(C)C(=O)CN)C2O)O1 (stereo partly drawn) [D, 5-de-O-methyl-5-O-(β-D-glucopyranosyl)-KA-6606 I] | 0.78 (≈ 1.45 µM) | 12.5 (≈ 23.3 µM) | 12.5 (≈ 23.3 µM) | 12.5 (≈ 23.3 µM) | 3.13 (≈ 5.82 µM) | 3.13 (≈ 5.82 µM) | 0.2 (≈ 0.372 µM) | > 100 | 12.5 (≈ 23.3 µM) | – | – | – | 0.78 (≈ 1.45 µM) | 0.39 (≈ 0.725 µM) | 6.25 (≈ 11.6 µM) | 3.13 (≈ 5.82 µM) | 6.25 (≈ 11.6 µM) | 25 (≈ 46.5 µM) | 25 (≈ 46.5 µM) | 6.25 (≈ 11.6 µM) | MIC [5, 33]: 25 µg/mL (≈ 46.5 µM); MIC [6, 18]: 12.5 µg/mL (≈ 23.3 µM); MIC [8, 29]: 3.13 µg/mL (≈ 5.82 µM); MIC (Escherichia coli R-101; [30]): 6.25 µg/mL (≈ 11.6 µM); MIC [12, 32]: 6.25 µg/mL (≈ 11.6 µM); MIC [14, 35]: 25 µg/mL (≈ 46.5 µM) |
| COC1CC(N)C(OC2OC(C(C)N)CCC2N)C(O)C1N(C)C(=O)CN (stereo not drawn) [KA-6606 I, reference compound] | 0.39 (≈ 1 µM) | – | 3.13 (≈ 8.04 µM) | 3.13 (≈ 8.04 µM) | 3.13 (≈ 8.04 µM) | > 100 | 0.2 (≈ 0.513 µM) | 25 (≈ 64.2 µM) | 3.13 (≈ 8.04 µM) | – | 1.56 (≈ 4.01 µM) | 3.13 (≈ 8.04 µM) | 0.39 (≈ 1 µM) | 0.2 (≈ 0.513 µM) | 1.56 (≈ 4.01 µM) | 3.13 (≈ 8.04 µM) | 1.56 (≈ 4.01 µM) | > 100 | 12.5 (≈ 32.1 µM) | 6.25 (≈ 16 µM) | MIC [2, 36]: 6.25 µg/mL (≈ 16 µM); MIC [5, 33]: 6.25 µg/mL (≈ 16 µM); MIC [6, 27]: 6.25 µg/mL (≈ 16 µM); MIC [12, 23]: 3.13 µg/mL (≈ 8.04 µM); MIC [14, 35]: 12.5 µg/mL (≈ 32.1 µM) |
| CC(N)C1CCC(N)C(OC2C(N)CC(OCC(O)CO)C(N(C)C(=O)CN)C2O)O1 (stereo not drawn) [C, 5-de-O-methyl-5-O-(2,3-dihydroxypropyl)-KA-6606 I] | 0.39 (≈ 0.868 µM) | 6.25 (≈ 13.9 µM) | 6.25 (≈ 13.9 µM) | 6.25 (≈ 13.9 µM) | 6.25 (≈ 13.9 µM) | 6.25 (≈ 13.9 µM) | ≤ 0.1 | 100 (≈ 222 µM) | 6.25 (≈ 13.9 µM) | 6.25 (≈ 13.9 µM) | 0.78 (≈ 1.74 µM) | 6.25 (≈ 13.9 µM) | 1.56 (≈ 3.47 µM) | 0.2 (≈ 0.445 µM) | 3.13 (≈ 6.96 µM) | 3.13 (≈ 6.96 µM) | 3.13 (≈ 6.96 µM) | 25 (≈ 55.6 µM) | 12.5 (≈ 27.8 µM) | 12.5 (≈ 27.8 µM) | MIC [6, 27]: 12.5 µg/mL (≈ 27.8 µM); MIC [12, 32]: 3.13 µg/mL (≈ 6.96 µM); MIC [14, 35]: 12.5 µg/mL (≈ 27.8 µM) |
| CC(N)C1CCC(N)C(OC2C(N)CC(OCC(O)CN)C(N(C)C(=O)CN)C2O)O1 (stereo not drawn) [A, 5-O-(3-amino-2-hydroxypropyl)-5-de-O-methyl-KA-6606 I] | 0.39 (≈ 0.869 µM) | – | 3.13 (≈ 6.98 µM) | 3.13 (≈ 6.98 µM) | 6.25 (≈ 13.9 µM) | 6.25 (≈ 13.9 µM) | ≤ 0.1 | 50 (≈ 111 µM) | 3.13 (≈ 6.98 µM) | 6.25 (≈ 13.9 µM) | 1.56 (≈ 3.48 µM) | 3.13 (≈ 6.98 µM) | 0.39 (≈ 0.869 µM) | 0.2 (≈ 0.446 µM) | 0.78 (≈ 1.74 µM) | 1.56 (≈ 3.48 µM) | – | – | – | 1.56 (≈ 3.48 µM) | MIC [2, 36]: 1.56 µg/mL (≈ 3.48 µM); MIC (Proteus vulgaris OX-19; [16]): 3.13 µg/mL (≈ 6.98 µM); MIC [6, 18]: 3.13 µg/mL (≈ 6.98 µM); MIC [7, 19]: 6.25 µg/mL (≈ 13.9 µM); MIC [10, 22]: 3.13 µg/mL (≈ 6.98 µM); MIC [12, 23]: 3.13 µg/mL (≈ 6.98 µM); MIC [14, 25]: 3.13 µg/mL (≈ 6.98 µM) |
